Test results published in ChEMBL document CHEMBL1146894, “Stereospecificity in hydroxyl radical scavenging activities of four ginsenosides produced by heat processing” (Bioorg Med Chem Lett, 2006).

Columns and labels:
[1] = system: Radical scavenging activity; test: Hydroxyl radical scavenging activity at 2 mM; assay type: functional
[2] = system: Radical scavenging activity; test: Hydroxyl radical scavenging activity; assay type: functional

| Structure (SMILES) | inhibition [1] [%] | IC50 [2] [µM] |
| --- | --- | --- |
| C=C(CCC=C(C)C)[C@H]1CC[C@]2(C)[C@@H]1[C@H](O)C[C@@H]1[C@@]3(C)CC[C@H](O[C@@H]4O[C@H](CO)[C@@H](O)[C@H](O)[C@H]4O[C@@H]4O[C@H](CO)[C@@H](O)[C@H](O)[C@H]4O)C(C)(C)[C@@H]3CC[C@]12C | 68 | – |
| O=C(O[C@@H]1Cc2c(O)cc(O)cc2O[C@@H]1c1cc(O)c(O)c(O)c1)c1cc(O)c(O)c(O)c1 [EPIGALOCATECHIN GALLATE] | – | 3760 |
| CC(C)=CCC[C@](C)(O)[C@H]1CC[C@]2(C)[C@@H]1[C@H](O)C[C@@H]1[C@@]3(C)CC[C@H](O[C@@H]4O[C@H](CO)[C@@H](O)[C@H](O)[C@H]4O[C@@H]4O[C@H](CO)[C@@H](O)[C@H](O)[C@H]4O)C(C)(C)[C@@H]3CC[C@]12C | 20 | 440 |
| CC(C)=CC/C=C(\C)[C@H]1CC[C@]2(C)[C@@H]1[C@H](O)C[C@@H]1[C@@]3(C)CC[C@H](O[C@@H]4O[C@H](CO)[C@@H](O)[C@H](O)[C@H]4O[C@@H]4O[C@H](CO)[C@@H](O)[C@H](O)[C@H]4O)C(C)(C)[C@@H]3CC[C@]12C [GINSENOSIDE RG5] | 16 | 150 |
| CC(C)=CCC[C@@](C)(O)[C@H]1CC[C@]2(C)[C@@H]1[C@H](O)C[C@@H]1[C@@]3(C)CC[C@H](O[C@@H]4O[C@H](CO)[C@@H](O)[C@H](O)[C@H]4O[C@@H]4O[C@H](CO)[C@@H](O)[C@H](O)[C@H]4O)C(C)(C)[C@@H]3CC[C@]12C | 72 | – |
